Test results published in patent US6147097A, “Imidazole derivatives as anti-HIV agents” (Shionogi & Co., Ltd., priority 1994, dated 2000).
Converted amounts (≈) assume the structure as drawn. Like-named read-outs stand apart in the source and are kept apart here.

How the values were obtained:
[1] = cytotoxicity in MT-4 cells (MTT, culture medium in place of HIV); format: cell-based; details: human
Procedure: (§1) The anti-HIV activity of each of the compounds produced in Examples was assayed by the following procedures. (1) Human T cell line MOLT-4 clone 8 persistently infected by HIV (HTLV-IIIB strain) was cultured in an RPMI-1640 medium supplemented with 10% fetal calf serum, the culture supernatant was filtered, and the titer of virus was determined; the culture supernatant was stored at -80° C. On the other hand, the test compound was diluted with the above culture medium to predetermined concentrations and distributed in 50 μl aliquots into a 96-well microtiter plate. Then, d suspension of MT-4 cells was added in 100 μl aliquots (3.5×10^4 cells per well) and then the above HIV-containing supernatant diluted with the above culture medium was added, 50 μl (60 pfu (plaque forming units)) per well. (2) The plate was incubated in a CO2 incubator at 37° C. for 5 days. Then, 30 μl/well of 3-(4,5-dimethyl thiazol-2-yl)-2,5-diphenyltetrazolium bromide (MTT) (5 mg/ml PBS) was added and the incubation was further continued for 1 hour. The surviving cells reducing MTT yield precipitation of formazan. Therefore, 150 μl portions of the culture supernatant were removed from all wells and, instead, 150 μl of a solution (10% Triton X-100 and 0.4% (v/v) HCl-added isopropyl alcohol) was added. The plate was shaken on a plate mixer to dissolve the formazan. The OD of formazan was measured with a microreader at 560 nm arid 690 nm (reference wavelength) and the result was compared with that of control.
The cytotoxicity of each of the compounds produced in Examples was assayed. In place of the HIV-containing supernatant (the virus suspension) in (1) in Test Example 1, 50 μl of the culture medium was added to each well, and the cytotoxicity was determined in the same manner as that for (2) in Test Example 1.

[2] = tested on: HIV (HTLV-IIIB strain); assay: microbe, parasite or virus in culture; format: cell-based; details: Human immunodeficiency virus 1, IIIB, MT4, 120 h; MT-4 cells, 60 pfu HIV per well, 37° C., 5 days, MTT; Tables 1 and 2; read-out: EC50
Procedure: as §1, with “(1) Human T cell line MOLT-4 clone 8 persistently infected by HIV (HTLV-IIIB strain) was cultured in an RPMI-1640 medium supplemented with 10% fetal calf serum, the culture supernatant was filtered, and the titer of virus was determined; the culture supernatant was stored at -80° C.” left out, “formazan.” for “formazan. The OD of formazan was measured with a microreader at 560 nm arid 690 nm (reference wavelength) and the result was compared with that of control.”

[3] = target: T1, purified recombinant HIV-1 reverse transcriptase (Human immunodeficiency virus type 1 group M subtype B, UniProt P04585); assay: reverse transcriptase inhibition, poly(rA)/(dT) template primer, [3H]dTTP uptake; format: biochemical
T1 construct: purified recombinant HIV-1 reverse transcriptase; made in house; host or cells: Escherichia coli
Procedure: The reverse transcriptase activity of each of the compounds synthesized in Examples was assayed by the following procedures.
Using the purified recombinant HIV-1 reverse transcriptase RT, E.C. 2.7.7.49) obtained by expression in Escherichia Coli, a 96-well plate assay system was established for assaying a large number of samples. The RT inhibitory activity was determined as follows. To 11 μl of a solution of the test inhibitor in water or MSO was added 100 μl of a reaction mixture (0.1 unit/100 μl RT, 50 mM Tris-HCl pH 8.3, 150 mM KCl, 10 mM MgCl2, 3 mM dithiothreitol, 0.1% Nonidet P-40, 10 μg/ml. poly(rA) and 10 μg/ml (dT)12-1.8 as template and primer, and 4 μM dTTP, 1 μCi/100 μl [^3 H]dTTP as substrate) and the mixture was incubated at 37° C. for 1 hour and, then, immediately cooled on ice. Using a cell harvester, the reaction mixture was transferred to a DEAE-filter mat (LKB-Pharmacia). Then, using the wash line of the cell harvester, the cells were washed twice with 5% Na2 HPO4 /H2 O and once with water and dried at 95° C. for 15 minutes. […] The inhibitory activity was expressed in percent inhibition relative to the uptake on water or DMSO control.

[4] = MT-4 cells, no virus, 37° C., 5 days, MTT, Table 3, read-out: CC50

CC(C)c1nc(CCO)n(Cc2ccc([N+](=O)[O-])cc2)c1Sc1cc(Cl)cc(Cl)c1 [Compound 126a, 5-(3,5-dichlorophenylthio)-2-(2-hydroxyethyl)-4-isopropyl-1-p-nitrobenzyl-1H-imidazole]
CC50 at 120 h ([1]; mt-4 cells): 6.3 µg/mL (≈ 13.5 µM)
EC50 [2]: 0.008 µg/mL (≈ 0.0172 µM)
IC50 [3]: 2.59 µM

CC(C)c1nc(CCO)n(Cc2cccc([N+](=O)[O-])c2)c1Sc1cc(Cl)cc(Cl)c1 [Compound 126b, 5-(3,5-Dichlorophenylthio)-2-(2-hydroxyethyl)-4-isopropyl-1-m-nitrobenzyl-1H-imidazole]
CC50 at 120 h ([1]; mt-4 cells): 3.1 to 6.3 µg/mL (≈ 6.65 to 13.5 µM)
EC50 [2]: 0.008 to 0.016 µg/mL (≈ 0.0172 to 0.0343 µM)
IC50 [3]: 8.58 µM

CC(C)c1nc(CCO)n(Cc2ccccc2[N+](=O)[O-])c1Sc1cc(Cl)cc(Cl)c1 [Compound 126c, 5-(3,5-Dichlorophenylthio)-2-(2-hydroxyethyl)-4-isopropyl-1-o-nitrobenzyl-1H-imidazole]
CC50 at 120 h ([1]; mt-4 cells): 6.3 µg/mL (≈ 13.5 µM)
EC50 [2]: 0.13 µg/mL (≈ 0.279 µM)
IC50 [3]: 60.9 µM

CC(C)c1nc(CCOC(N)=O)n(Cc2ccc([N+](=O)[O-])cc2)c1Sc1cc(Cl)cc(Cl)c1 [Compound 128a, 2-(2-carbamoyloxyethyl)-5-(3,5-dichlorophenylthio)-4-isopropyl-1-(p-nitrobenzyl)-1H-imidazole]
CC50 at 120 h ([1]; mt-4 cells): 6.3 µg/mL (≈ 12.4 µM)
EC50 [2]: 3.1 to 6.3 µg/mL (≈ 6.09 to 12.4 µM)
IC50 [3]: 104 µM

CC(C)c1nc(CCOC(N)=O)n(Cc2cccc([N+](=O)[O-])c2)c1Sc1cc(Cl)cc(Cl)c1 [Compound 128b, 2-(2-Carbamoyloxyethyl)-5-(3,5-dichlorophenylthio)-4-isopropyl-1-(m-nitrobenzyl)-1H-i-imidazole]
CC50 at 120 h ([1]; mt-4 cells): 6.3 to 12.5 µg/mL (≈ 12.4 to 24.5 µM)
EC50 [2]: 0.13 µg/mL (≈ 0.255 µM)
IC50 [3]: > 196 µM

CC(C)c1nc(CCOC(N)=O)n(Cc2ccccc2[N+](=O)[O-])c1Sc1cc(Cl)cc(Cl)c1 [Compound 128c, 2-(2-Carbamoyloxyethyl)-5-(3,5-dichlorophenylthio)-4-isopropyl-1-(o-nitrobenzyl)-1H-imidazole]
CC50 at 120 h ([1]; mt-4 cells): 6.3 to 12.5 µg/mL (≈ 12.4 to 24.5 µM)
EC50 [2]: 0.25 µg/mL (≈ 0.491 µM)
IC50 [3]: > 196 µM

CCOC(=O)Cn1c(CCOCc2ccccc2)nc(C(C)C)c1Sc1cc(Cl)cc(Cl)c1 [Compound 130c]
CC50 at 120 h ([1]; mt-4 cells): 12.5 µg/mL (≈ 24.6 µM)
EC50 [2]: 0.5 µg/mL (≈ 0.985 µM)
IC50 [3]: > 197 µM

CC(C)c1nc(CCOCc2ccccc2)n(CCO)c1Sc1cc(Cl)cc(Cl)c1 [Compound 130d, 2-(2-(2-benzyloxyethyl)-5-(3,5-dichlorophenylthio)-4-isopropyl-1H-imidazol-1-yl)ethanol]
CC50 at 120 h ([1]; mt-4 cells): 6.3 µg/mL (≈ 13.5 µM)
EC50 [2]: 0.5 to 1 µg/mL (≈ 1.07 to 2.15 µM)
IC50 [3]: > 215 µM

CC(C)c1nc(CCO)n(CCO)c1Sc1cc(Cl)cc(Cl)c1 [Compound 131c, 2-(5-(3,5-dichlorophenylthio)-2-(2-hydroxyethyl)-4-isopropyl-1H-imidazol-1-yl)ethanol]
CC50 at 120 h ([1]; mt-4 cells): 6.3 to 12.5 µg/mL (≈ 16.8 to 33.3 µM)
EC50 [2]: < 0.008 µg/mL
IC50 [3]: 2.58 µM

CCOC(=O)Cn1c(CCCOCc2ccccc2)nc(C(C)C)c1Sc1cc(Cl)cc(Cl)c1 [Compound 136d, (2-(3-benzyloxypropyl)-5-(3,5-dichlorophenylthio)-4-isopropyl-1H-imidazol-1-yl)-ethyl acetate]
CC50 at 120 h ([1]; mt-4 cells): 12.5 µg/mL
EC50 [2]: 0.5 µg/mL
IC50 [3]: > 192 µM

CC(C)c1nc(CCCOCc2ccccc2)n(CCO)c1Sc1cc(Cl)cc(Cl)c1 [Compound 136e, 2-(2-(3-benzyloxypropyl)-5-(3,5-dichlorophenylthio)-4-isopropyl-1H-imidazol-1-yl)-ethanol]
CC50 at 120 h ([1]; mt-4 cells): 6.3 to 12.5 µg/mL (≈ 13.1 to 26.1 µM)
EC50 [2]: 0.5 to 1 µg/mL (≈ 1.04 to 2.09 µM)
IC50 [3]: > 209 µM

CC(C)c1nc(CCCO)n(C)c1Sc1cc(Cl)cc(Cl)c1 [Compound 137a, 3-(5-(3,5-dichlorophenylthio)-4-isopropyl-1-methyl-1H-imidazol-2-yl)-propan-1-ol]
CC50 at 120 h ([1]; mt-4 cells): 6.3 to 12.5 µg/mL (≈ 17.5 to 34.8 µM)
EC50 [2]: 0.008 µg/mL (≈ 0.0223 µM)
IC50 [3]: 5.57 µM

CCn1c(CCCO)nc(C(C)C)c1Sc1cc(Cl)cc(Cl)c1 [Compound 137b, 3-(5-(3,5-dichlorophenylthio)-1-ethyl-4-isopropyl-1H-imidazol-2-yl)-propan-1-ol]
CC50 at 120 h ([1]; mt-4 cells): 6.3 to 12.5 µg/mL (≈ 16.9 to 33.5 µM)
EC50 [2]: 0.005 to 0.01 µg/mL (≈ 0.0134 to 0.0268 µM)
IC50 [3]: 0.991 µM

CC(C)c1nc(CCCO)n(Cc2ccncc2)c1Sc1cc(Cl)cc(Cl)c1 [Compound 137c, 3-(5-(3,5-dichlorophenylthio)-4-isopropyl-1-(pyridin-4-ylmethyl)-1H-imidazol-2-yl)-propan-1-ol]
CC50 at 120 h ([1]; mt-4 cells): 6.3 to 12.5 µg/mL (≈ 14.4 to 28.6 µM)
EC50 [2]: 0.003 to 0.005 µg/mL (≈ 0.00687 to 0.0115 µM)
IC50 [3]: 0.71 µM

CC(C)c1nc(CCCO)n(CCO)c1Sc1cc(Cl)cc(Cl)c1 [Compound 137d, 3-(5-(3,5-dichlorophenylthio)-1-(2-hydroxyethyl)-4-isopropyl-1H-imidazol-2-yl)-propan-1-ol]
CC50 at 120 h ([1]; mt-4 cells): 6.3 to 12.5 µg/mL (≈ 16.2 to 32.1 µM)
EC50 [2]: < 0.008 µg/mL
IC50 [3]: 6.68 µM

Cc1nc(C(C)C)c(Sc2cc(Cl)cc(Cl)c2)n1C [Compound I-1, 5-(3,5-dichlorophenylthio)-1,2-dimethyl-4-isopropyl-1H-imidazole]
CC50 at 120 h [1, 4]: 6.3 to 12.5 µg/mL (≈ 20 to 39.6 µM)
EC50 [2]: 0.008 µg/mL (≈ 0.0254 µM)
IC50 [3]: 3.81 µM

Cc1cc(C)cc(Sc2c(C(C)C)nc(C)n2C)c1 [Compound I-2, 5-(3,5-dimethylphenylthio)-1,2-dimethyl-4-isopropyl-1H-imidazole]
CC50 at 120 h [1, 4]: 25 µg/mL (≈ 91.1 µM)
EC50 [2]: 0.008 µg/mL (≈ 0.0292 µM)
IC50 [3]: 7.65 µM

Cc1nc(C(C)C)c(Sc2cccc(Cl)c2)n1C [Compound I-3, 5-(3-chlorophenylthio)-1,2-dimethyl-4-isopropylimidazole]
CC50 at 120 h [1, 4]: 12.5 µg/mL (≈ 44.5 µM)
EC50 [2]: 0.03 µg/mL (≈ 0.107 µM)
IC50 [3]: 3.56 µM

Cc1cc(C)cc(Sc2c(C(C)C)nc(C)n2Cc2ccccc2)c1 [Compound I-4, 1-benzyl-5-(3,5-dimethylphenylthio)-4-isopropyl-2-methylimidazole]
CC50 at 120 h [1, 4]: 12.5 µg/mL (≈ 35.7 µM)
EC50 [2]: 0.016 µg/mL (≈ 0.0456 µM)
IC50 [3]: 4.85 µM

CCc1nc(C)n(C)c1Sc1cc(C)cc(C)c1 [Compound I-5, 1,2-dimethyl-5-(3,5-dimethylphenylthio)-4-ethylimidazole]
CC50 at 120 h [1, 4]: 1 to 10 µg/mL (≈ 3.84 to 38.4 µM)
EC50 [2]: 0.06 µg/mL (≈ 0.23 µM)
IC50 [3]: 8.83 µM

Cc1cc(C)cc(Sc2c(C(C)C)nc(C=O)n2C)c1 [Compound I-6, 5-(3,5-dimethylphenylthio)-4-isopropyl-1-methyl-1H-imidazole-2-carbaldehyde]
CC50 at 120 h [1, 4]: 10 µg/mL (≈ 34.7 µM)
EC50 [2]: 0.03 to 0.06 µg/mL (≈ 0.104 to 0.208 µM)
IC50 [3]: 127 µM
